Assay results as given in patent US8889667B2 (Agios Pharmaceuticals, Inc, priority 2010, dated 2014).

target: PKM2 (Homo sapiens, UniProt P14618); experiment: PKM2 Assay (activation, LDH-coupled, absorbance at 340 nm); assay type: biochemical; details: Table 4
Description: • PKM2 stock enzyme solution was diluted in Reaction Buffer • 2 μL of compound was added into each well first, and then 180 μL of the Reaction Mix was added. • Reaction mixture with compound (without ADP) was incubated for 30 minutes at 4° C. • Plates were re-equilibrated to room temperature prior to adding 20 μL ADP to initiate the reaction. • Reaction progress was measured as changes in absorbance at 340 nm wavelength at room temperature (25° C.) Reaction Mix: PKM2 (50 ng/well), ADP (0.7 mM), PEP (0.15 mM), NADH (180 μM), LDH (2 units) in Reaction Buffer Reaction Buffer: 100 mM KCl, 50 mM Tris pH 7.5, 5 mM MgCl2, 1 mM DTT, 0.03% BSA.
Representative compounds of the invention were tested for their ability to activate PKM2 using the above assay. For simplicity, the activation activity of these compounds is represented as an AC50 in Tables 4 and 5 and throughout the application. […] “B” refers to an activator of PKM2 with an EC50 between 100 nM and 500 nM. “C” refers to an activator of PKM2 with an EC50 between 500 nM and 1000 nM. “D” refers to an activator of PKM2 with an EC50 between 1 μM and 20 μM. “E” refers a compound whose activation of PKM2 was not measurable. “N/C” refers to AC50 data not available.

PKM2, sequence (P14618 whole entry): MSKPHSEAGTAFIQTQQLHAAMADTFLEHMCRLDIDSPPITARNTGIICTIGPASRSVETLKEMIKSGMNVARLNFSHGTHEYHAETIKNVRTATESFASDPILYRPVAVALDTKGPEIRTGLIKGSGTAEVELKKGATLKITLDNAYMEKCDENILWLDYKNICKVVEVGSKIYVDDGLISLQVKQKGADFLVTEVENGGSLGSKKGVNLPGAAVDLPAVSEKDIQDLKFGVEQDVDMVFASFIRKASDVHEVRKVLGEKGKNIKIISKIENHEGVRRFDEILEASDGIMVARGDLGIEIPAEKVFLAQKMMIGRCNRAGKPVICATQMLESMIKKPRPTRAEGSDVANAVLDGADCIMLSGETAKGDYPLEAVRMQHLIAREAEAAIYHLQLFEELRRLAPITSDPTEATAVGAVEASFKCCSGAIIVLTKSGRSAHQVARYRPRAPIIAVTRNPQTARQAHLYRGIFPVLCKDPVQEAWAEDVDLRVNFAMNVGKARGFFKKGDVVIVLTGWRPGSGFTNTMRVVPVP

SMILES | AC50 [µM]
C[C@@H]1CN(Cc2cc(F)c(F)c(F)c2)CCN1C(=O)c1ccc(NS(=O)(=O)c2cccc3cccnc23)cc1 [Compound 149, (R)—N-(4-(2-methyl-4-(3,4,5-trifluorobenzyl)piperazine-1-carbonyl)phenyl)quinoline-8-sulfonamide] | < 0.1
CC1CN(CC2CCCCC2)CC(C)N1C(=O)c1ccc(NS(=O)(=O)c2cccc3cccnc23)cc1 (stereo not drawn) [Compound 198, N-(4-(4-(cyclohexylmethyl)-2,6-dimethylpiperazine-1-carbonyl)phenyl)quinoline-8-sulfonamide] | 0.1 to 0.5
C[C@H]1CN(C[C@H]2CCOC2)CCN1C(=O)c1ccc(NS(=O)(=O)c2cccc3cccnc23)cc1 [Compound 210] | 0.1 to 0.5
C[C@@H]1CN(C(=O)c2ccc(NS(=O)(=O)c3cccc4cccnc34)cc2)CCN1C(=O)c1ccccn1 [Compound 102] | 0.1 to 0.5
C[C@H]1CN(CC2CCC2)CCN1C(=O)c1ccc(NS(=O)(=O)c2cccc3cccnc23)cc1 [Compound 207, (S)—N-(4-(4-(cyclobutylmethyl)-2-methylpiperazine-1-carbonyl)phenyl)quinoline-8-sulfonamide] | 0.1 to 0.5
C[C@H]1CN(CC2CC2)CCN1C(=O)c1ccc(NS(=O)(=O)c2cccc3cccnc23)cc1 [Compound 144, (S)—N-(4-(4-(cyclopropylmethyl)-2-methylpiperazine-1-carbonyl)phenyl)quinoline-8-sulfonamide] | < 0.1
CC1CN(Cc2cc(F)c(F)cc2F)CC(C)N1C(=O)c1ccc(NS(=O)(=O)c2cccc3cccnc23)cc1 (stereo not drawn) [Compound 203, N-(4-(2,6-dimethyl-4-(2,4,5-trifluorobenzyl)piperazine-1-carbonyl)phenyl)quinoline-8-sulfonamide] | < 0.1
O=C(c1ccc(NS(=O)(=O)c2cccc3cccnc23)cc1)N1C2CCC1CN(Cc1cc(F)cc(F)c1)C2 [Compound 227, N-(4-(3-(3,5-difluorobenzyl)-3,8-diazabicyclo[3.2.1]octane-8-carbonyl)phenyl)quinoline-8-sulfonamide] | 0.1 to 0.5
C[C@H]1CN(Cc2ccc(F)cc2)CCN1C(=O)c1ccc(NS(=O)(=O)c2cccc3cccnc23)cc1 [Compound 152, (S)—N-(4-(4-(4-fluorobenzyl)-2-methylpiperazine-1-carbonyl)phenyl)quinoline-8-sulfonamide] | < 0.1
CC[C@H]1CN(C(C)c2cc(F)cc(F)c2)CCN1C(=O)c1ccc(NS(=O)(=O)c2cccc3cccnc23)cc1 (stereo partly drawn) [Compound 161, N-(4-((2S)-4-(1-(3,5-difluorophenyl)ethyl)-2-ethylpiperazine-1-carbonyl)phenyl)quinoline-8-sulfonamide] | < 0.1
C[C@@H]1CN(C(=O)O[C@@H]2CCOC2)CCN1C(=O)c1ccc(NS(=O)(=O)c2cccc3cccnc23)cc1 [Compound 126, (R)—((R)-tetrahydrofuran-3-yl)-3-methyl-4-(4-(quinoline-8-sulfonamido)benzoyl)piperazine-1-carboxylate] | 0.1 to 0.5
C[C@H]1CN(C[C@@H]2CCOC2)CCN1C(=O)c1ccc(NS(=O)(=O)c2cccc3cccnc23)cc1 [Compound 209] | 0.1 to 0.5

same assay, conditions: Table 5

SMILES | AC50 [µM]
C[C@@H](c1ccccc1)N1CCN(C(=O)c2ccc(NS(=O)(=O)c3cccc4cccnc34)cc2)CC1 [Compound 387, (S)—N-(4-(4-(1-phenylethyl)piperazine-1-carbonyl)phenyl)quinoline-8-sulfonamide] | < 0.1
COc1ccc(CN2CCN(C(=O)c3ccc(NS(=O)(=O)c4cccc5cccnc45)c(OC(F)(F)F)c3)CC2)cc1 [Compound 310, N-(4-(4-(4-methoxybenzyl)piperazine-1-carbonyl)-2-(trifluoromethoxy)phenyl)quinoline-8-sulfonamide] | 0.1 to 0.5
[2H]C(c1cc(F)cc(F)c1)N1CCN(C(=O)c2ccc(NS(=O)(=O)c3cccc4cccnc34)cc2)CC1 (stereo not drawn) [Compound 450, N-(4-(4-(3,5-difluorobenzyl)piperazine-1-carbonyl)phenyl)quinoline-8-sulfonamide-(D)] | < 0.1
O=C(c1ccc(NS(=O)(=O)c2cccc3cccnc23)c(OC(F)(F)F)c1)N1CCN(Cc2ccccc2F)CC1 [Compound 335, N-(4-(4-(2-fluorobenzyl)piperazine-1-carbonyl)-2-(trifluoromethoxy)phenyl)quinoline-8-sulfonamide] | 0.1 to 0.5
O=C(c1ccc(NS(=O)(=O)c2cccc3cccnc23)c(C(F)(F)F)c1)N1CCN(CC2CCCO2)CC1 (stereo not drawn) [Compound 329, N-(4-(4-((tetrahydrofuran-2-yl)methyl)piperazine-1-carbonyl)-2-(trifluoromethyl)phenyl)quinoline-8-sulfonamide] | 1 to 20
O=C(c1ccc(NS(=O)(=O)c2cccc3cccnc23)c(OC(F)(F)F)c1)N1CCN(Cc2c[nH]cn2)CC1 [Compound 381, N-(4-(4-((1H-imidazol-4-yl)methyl)piperazine-1-carbonyl)-2-(trifluoromethoxy)phenyl)quinoline-8-sulfonamide] | 0.1 to 0.5
O=C(c1ccc(NS(=O)(=O)c2cccc3cccnc23)cc1F)N1CCN(Cc2ccc(F)cc2)CC1 [Compound 420, N-(3-fluoro-4-(4-(4-fluorobenzyl)piperazine-1-carbonyl)phenyl)quinoline-8-sulfonamide] | < 0.1
COc1cc(C(=O)N2CCN(C3(c4ccccc4)CC3)CC2)ccc1NS(=O)(=O)c1cccc2cccnc12 [Compound 352, N-(2-methoxy-4-(4-(1-phenylcyclopropyl)piperazine-1-carbonyl)phenyl)quinoline-8-sulfonamide] | 0.1 to 0.5
O=C(c1ccc(NS(=O)(=O)c2cccc3cccnc23)cc1)N1CCN(C(=O)c2cc[nH]n2)CC1 [Compound 350, N-(4-(4-(1H-pyrazole-3-carbonyl)piperazine-1-carbonyl)phenyl)quinoline-8-sulfonamide] | 0.1 to 0.5
COc1cc(C(=O)N2CCN(C3(c4ccc(F)cc4)CC3)CC2)ccc1NS(=O)(=O)c1cccc2cccnc12 [Compound 400, N-(4-(4-(1-(4-fluorophenyl)cyclopropyl)piperazine-1-carbonyl)-2-methoxyphenyl)quinoline-8-sulfonamide] | < 0.1
CC(c1c(F)cccc1F)N1CCN(C(=O)c2ccc(NS(=O)(=O)c3cccc4cccnc34)cc2)CC1 (stereo not drawn) [Compound 357, N-(4-(4-(1-(2,6-difluorophenyl)ethyl)piperazine-1-carbonyl)phenyl)quinoline-8-sulfonamide] | < 0.1
O=C(c1ccc(NS(=O)(=O)c2cccc3cccnc23)c(OC(F)(F)F)c1)N1CCN(Cc2cncc(F)c2)CC1 [Compound 300] | 0.1 to 0.5
COc1cc(C(=O)N2CCN(C(=O)c3ccc(F)c(F)c3)CC2)ccc1NS(=O)(=O)c1cccc2cccnc12 [Compound 319, N-(4-(4-(3,4-difluorobenzoyl)piperazine-1-carbonyl)-2-methoxyphenyl)quinoline-8-sulfonamide] | 0.1 to 0.5
O=C(c1ccc(NS(=O)(=O)c2cccc3cccnc23)c(OC(F)(F)F)c1)N1CCN(Cc2ccncc2Cl)CC1 [Compound 307, N-(4-(4-((3-chloropyridin-4-yl)methyl)piperazine-1-carbonyl)-2-(trifluoromethoxy)phenyl)quinoline-8-sulfonamide] | 0.1 to 0.5
O=C(c1ccc(NS(=O)(=O)c2cccc3cccnc23)cc1)N1CCN(C[C@@H]2CCOC2)CC1 [Compound 445, (R)— and (S)—N-(4-(4-((tetrahydrofuran-3-yl)methyl)piperazine-1-carbonyl)phenyl)quinoline-8-sulfonamide] | < 0.1
